Read-outs that look alike come from different tables or passages of the source.
Assays:
[1] = molecular target: CFTR-mediated chloride transport (Homo sapiens, UniProt P13569); type: cell-based; conditions: enteroid cells incubated with test compound 18-24 hours, acute 10 μM forskolin and 300 nM Compound III; for Max. Activity: % of chloride transport with 3 μM Compound A, 3 μM Compound II and 300 nM acute Compound III triple combination control
Summary of the method: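 Human intestinal enteroid cells incubated with compound 18–24 h at 37° C., then membrane potential dye (FLIPR) read 15 min after chloride-free stimulation with 10 μM forskolin, 100 μM IBMX and 300 nM Compound III. AUC expressed as % of triple-combination control (3 μM Compound A, 3 μM Compound II, 300 nM Compound III).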

[2] = snar bond, DMSO

Sequence of CFTR-mediated chloride transport (P13569 whole entry, looked up): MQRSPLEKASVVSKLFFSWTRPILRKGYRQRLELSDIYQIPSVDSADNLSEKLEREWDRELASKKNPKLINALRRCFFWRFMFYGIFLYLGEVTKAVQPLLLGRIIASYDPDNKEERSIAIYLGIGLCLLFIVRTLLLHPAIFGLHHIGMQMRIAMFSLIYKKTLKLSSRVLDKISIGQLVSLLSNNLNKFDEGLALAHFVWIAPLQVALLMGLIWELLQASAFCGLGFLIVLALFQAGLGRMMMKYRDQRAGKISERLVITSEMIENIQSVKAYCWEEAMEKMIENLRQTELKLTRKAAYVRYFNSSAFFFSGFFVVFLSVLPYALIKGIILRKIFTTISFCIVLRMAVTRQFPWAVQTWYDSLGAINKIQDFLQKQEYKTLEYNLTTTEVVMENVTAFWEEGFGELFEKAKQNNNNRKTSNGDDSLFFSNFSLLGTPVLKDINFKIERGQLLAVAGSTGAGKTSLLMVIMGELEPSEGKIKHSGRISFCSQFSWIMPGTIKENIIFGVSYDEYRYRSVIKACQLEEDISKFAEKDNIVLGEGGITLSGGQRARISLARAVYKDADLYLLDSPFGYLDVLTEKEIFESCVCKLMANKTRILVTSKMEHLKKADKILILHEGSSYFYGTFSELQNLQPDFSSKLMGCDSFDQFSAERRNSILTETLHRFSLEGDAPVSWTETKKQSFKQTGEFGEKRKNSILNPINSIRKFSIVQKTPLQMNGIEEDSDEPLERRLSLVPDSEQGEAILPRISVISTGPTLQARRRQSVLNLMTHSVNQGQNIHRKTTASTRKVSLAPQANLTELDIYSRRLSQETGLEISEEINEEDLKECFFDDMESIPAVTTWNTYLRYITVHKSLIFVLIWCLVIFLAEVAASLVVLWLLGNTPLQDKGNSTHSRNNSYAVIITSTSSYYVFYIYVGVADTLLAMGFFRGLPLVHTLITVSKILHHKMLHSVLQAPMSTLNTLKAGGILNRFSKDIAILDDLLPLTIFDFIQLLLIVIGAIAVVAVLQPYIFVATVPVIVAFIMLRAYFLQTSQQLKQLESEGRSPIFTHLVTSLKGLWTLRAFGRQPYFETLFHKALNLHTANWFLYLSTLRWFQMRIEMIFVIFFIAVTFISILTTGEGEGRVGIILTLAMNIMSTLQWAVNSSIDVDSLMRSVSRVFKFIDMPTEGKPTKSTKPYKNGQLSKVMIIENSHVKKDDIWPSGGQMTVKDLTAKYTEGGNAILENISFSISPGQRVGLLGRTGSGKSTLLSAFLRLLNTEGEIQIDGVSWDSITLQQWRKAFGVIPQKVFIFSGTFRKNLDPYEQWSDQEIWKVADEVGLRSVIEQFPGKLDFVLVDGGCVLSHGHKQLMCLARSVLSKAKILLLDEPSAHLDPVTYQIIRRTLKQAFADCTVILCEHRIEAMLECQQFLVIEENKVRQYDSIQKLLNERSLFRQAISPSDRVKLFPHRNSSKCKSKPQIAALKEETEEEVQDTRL

Row | SMILES | EC50 [1] | Max. Activity [1] | other results
1 | CC1(C)CC2CCCNc3ccc(cn3)S(=O)(=O)NC(=O)c3ccc(-n4ccc(OCCC5(C(F)(F)F)CC5)n4)nc3N1C2 (racemic) [Compound 62, 12,12-Dimethyl-8-(3-{2-[1-(trifluoromethyl)cyclopropyl]ethoxy}-1H-pyrazol-1-yl)-2λ^6-thia-3,9,11,18,20-pentaazatetracyclo[17.2.2.111,14.05,10]tetracosa-1(22),5,7,9,19(23),20-hexaene-2,2,4-trione] | < 1000 nM | +++ (+++ is >60%) | ring closure, yield after HPLC ([2]; from CC1(C)CC(CCCNc2ccc(S(=O)(=O)NC(=O)c3ccc(-n4ccc(OCCC5(C(F)(F)F)CC5)n4)nc3Cl)cn2)CN1, 16-membered ring, K2CO3/CsF/3A MS, 37.3 mM, 165.0 °C, 19.0 h): 6%
2 | CC1(C)CC2CCCCNc3cccc(n3)S(=O)(=O)NC(=O)c3ccc(-n4cc(OCCC5(C(F)(F)F)CC5)cn4)nc3N1C2 (racemic) [Compound 70, 12,12-Dimethyl-8-(4-{2-[1-(trifluoromethyl)cyclopropyl]ethoxy}-1H-pyrazol-1-yl)-2λ^6-thia-3,9,11,19,24-pentaazatetracyclo[18.3.1.111,14.05,10]pentacosa-1(23),5,7,9,20(24),21-hexaene-2,2,4-trione] | < 1000 nM | ++ (++ is 30-60%) | ring closure, yield after HPLC ([2]; from CC1(C)CC(CCCCNc2cccc(S(=O)(=O)NC(=O)c3ccc(-n4cc(OCCC5(C(F)(F)F)CC5)cn4)nc3Cl)n2)CN1, 16-membered ring, K2CO3/CsF/3A MS, 164.4 mM, 150.0 °C): 24%
3 | CC1(C)CC2CCCn3ccc(n3)S(=O)(=O)NC(=O)c3ccc(-n4ccc(OCCCC5(C(F)(F)F)CC5)n4)nc3N1C2 (racemic) [Compound 155, 20,20-Dimethyl-4-(3-{3-[1-(trifluoromethyl)cyclopropyl]propoxy}-1H-pyrazol-1-yl)-10λ^6-thia-1,3,9,14,22-pentaazatetracyclo[16.2.1.111,14.02,7]docosa-2(7),3,5,11(22),12-pentaene-8,10,10-trione] | < 1000 nM | +++ (+++ is >60%) | ring closure, yield after HPLC ([2]; from CC1(C)CC(CCCn2ccc(S(=O)(=O)NC(=O)c3ccc(-n4ccc(OCCCC5(C(F)(F)F)CC5)n4)nc3Cl)n2)CN1, 14-membered ring, K2CO3/CsF/3A MS, 49.7 mM, 140.0 °C, 16.0 h, 2 steps): 51%
4 | CC1(C)CC2CN1c1nc(-n3ccc(OCCC(C4CC4)C4CC4)n3)ccc1C(=O)NS(=O)(=O)c1cccc(n1)NCCO2 (racemic) [Compound 156, 8-[3-(3,3-Dicyclopropylpropoxy)-1H-pyrazol-1-yl]-12,12-dimethyl-15-oxa-2λ^6-thia-3,9,11,18,23-pentaazatetracyclo[17.3.1.111,14.05,10]tetracosa-1(23),5,7,9,19,21-hexaene-2,2,4-trione] | < 1000 nM | +++ (+++ is >60%) | ring closure, yield after HPLC ([2]; from CC1(C)CC(OCCNc2cccc(S(=O)(=O)NC(=O)c3ccc(-n4ccc(OCCC(C5CC5)C5CC5)n4)nc3Cl)n2)CN1, 15-membered ring, K2CO3/CsF/3A MS, 121.6 mM, 150.0 °C): 30%
5 | CC1(C)CC2CN1c1nc(-n3ccc(OCCC4(C(F)(F)F)CC4)n3)ccc1C(=O)NS(=O)(=O)c1ccn(n1)CCO2 (racemic) [Compound 164, 20,20-Dimethyl-4-(3-{2-[1-(trifluoromethyl)cyclopropyl]ethoxy}-1H-pyrazol-1-yl)-17-oxa-10λ^6-thia-1,3,9,14,22-pentaazatetracyclo[16.2.1.111,14.02,7]docosa-2(7),3,5,11(22),12-pentaene-8,10,10-trione] | 1000 to 3000 nM | ++ (++ is 30-60%) | ring closure, yield after HPLC ([2]; from CC(C)(C)OC(=O)N1CC(OCCn2ccc(S(=O)(=O)NC(=O)c3ccc(-n4ccc(OCCC5(C(F)(F)F)CC5)n4)nc3Cl)n2)CC1(C)C, 14-membered ring, K2CO3/CsF/3A MS, 62.6 mM, 140.0 °C, 2 steps): 30%
6 | CC1(C)CC2CN1c1nc(-n3ccc(OCCC4C5(CC5)C45CC5)n3)ccc1C(=O)NS(=O)(=O)c1cccc(n1)NCCO2 (racemic) [Compound 188, 8-[3-(2-{Dispiro[2.0.2.1]heptan-7-yl}ethoxy)-1H-pyrazol-1-yl]-12,12-dimethyl-15-oxa-2λ^6-thia-3,9,11,18,23-pentaazatetracyclo[17.3.1.111,14.05,10]tetracosa-1(23),5(10),6,8,19,21-hexaene-2,2,4-trione] | < 1000 nM | +++ (+++ is >60%) | ring closure, yield after HPLC ([2]; from CC1(C)CC(OCCNc2cccc(S(=O)(=O)NC(=O)c3ccc(-n4ccc(OCCC5C6(CC6)C56CC6)n4)nc3Cl)n2)CN1, 15-membered ring, K2CO3/CsF/3A MS, 108.4 mM, 140.0 °C, 20.0 h, 2 steps): 97%
7 | CC1(C)CC2CCNc3cccc(n3)S(=O)(=O)NC(=O)c3ccc(-n4ccc(OCCC(C5CC5)C5CC5)n4)nc3N1C2 (single isomer, unassigned; enantiomer 2) |  |  | ring closure, yield after HPLC ([2]; from CC1(C)CC(CCNc2cccc(S(=O)(=O)NC(=O)c3ccc(-n4ccc(OCCC(C5CC5)C5CC5)n4)nc3Cl)n2)CN1, 14-membered ring, K2CO3/CsF/3A MS, 22.7 mM, 150.0 °C): 29%
8 | CC(C)(C)COc1ccn(-c2ccc3c(n2)N2CC(CCNc4cccc(n4)S(=O)(=O)NC3=O)CC2(C)C)n1 (stereo not shown) [Compound 1, 11-[3-(2,2-dimethylpropoxy)-1H-pyrazol-1-yl]-7,7-dimethyl-17λ^6-thia-2,8,10,16,22-pentaazatetracyclo[16.3.1.15,8.09,14]tricosa-1(21),9(14),10,12,18(22),19-hexaene-15,17,17-trione] | < 1000 nM | +++ (+++ is >60%) | ring closure, yield after HPLC ([2]; from CC(C)(C)COc1ccn(-c2ccc(C(=O)NS(=O)(=O)c3cccc(NCCC4CNC(C)(C)C4)n3)c(Cl)n2)n1, 14-membered ring, K2CO3, 155.0 °C, 62.0 h, 2 steps): 10%
9 | CC1(C)CC2CCNc3cccc(n3)S(=O)(=O)NC(=O)c3ccc(-n4ccc(OCC5(C(F)(F)F)CC5)n4)nc3N1C2 (stereo not shown) [Compound 4, 7,7-dimethyl-11-(3-{[1-(trifluoromethyl)cyclopropyl]methoxy}-1H-pyrazol-1-yl)-17λ^6-thia-2,8,10,16,22-pentaazatetracyclo[16.3.1.1(5,8).0(9,14)]tricosa-1(21),9(14),10,12,18(22),19-hexaene-15,17,17-trione] | < 1000 nM | +++ (+++ is >60%) | ring closure, yield after HPLC ([2]; from CC1(C)CC(CCNc2cccc(S(=O)(=O)NC(=O)c3ccc(-n4ccc(OCC5(C(F)(F)F)CC5)n4)nc3Cl)n2)CN1, 14-membered ring, K2CO3, 210.5 mM, 125.0 °C, 112.0 h, 2 steps): 9%
10 | Cc1c2cnn1CCCC1CN(c3nc(-n4ccc(OCCC5(C(F)(F)F)CC5)n4)ccc3C(=O)NS2(=O)=O)C(C)(C)C1 (stereo not shown) [Compound 18, 20,20,22-trimethyl-4-(3-{2-[1-(trifluoromethyl)cyclopropyl]ethoxy}-1H-pyrazol-1-yl)-10λ^6-thia-1,3,9,13,14-pentaazatetracyclo[16.2.1.111,14.02,7]docosa-2,4,6,11(22),12-pentaene-8,10,10-trione] | < 1000 nM | ++ (++ is 30-60%) | ring closure, yield after HPLC ([2]; from Cc1c(S(=O)(=O)NC(=O)c2ccc(-n3ccc(OCCC4(C(F)(F)F)CC4)n3)nc2Cl)cnn1CCCC1CNC(C)(C)C1, 14-membered ring, K2CO3/CsF/3A MS, 31.9 mM, 150.0 °C): 7%
11 | Cc1nn2cc1S(=O)(=O)NC(=O)c1ccc(-n3ccc(OCCC4(C(F)(F)F)CC4)n3)nc1N1CC(CCC2)CC1(C)C (stereo not shown) [Compound 19, 12,20,20-trimethyl-4-(3-{2-[1-(trifluoromethyl)cyclopropyl]ethoxy}-1H-pyrazol-1-yl)-10λ^6-thia-1,3,9,13,14-pentaazatetracyclo[16.2.1.111,14.02,7]docosa-2,4,6,11(22),12-pentaene-8,10,10-trione] | 1000 to 3000 nM | ++ (++ is 30-60%) | ring closure, yield after HPLC ([2]; from Cc1nn(CCCC2CNC(C)(C)C2)cc1S(=O)(=O)NC(=O)c1ccc(-n2ccc(OCCC3(C(F)(F)F)CC3)n2)nc1Cl, 14-membered ring, K2CO3/CsF/3A MS, 31.9 mM, 150.0 °C): 9%
12 | CC1(C)CC2CCCNc3ccnc(c3)S(=O)(=O)NC(=O)c3ccc(-n4ccc(OCCC5(C(F)(F)F)CC5)n4)nc3N1C2 (stereo not shown) [Compound 23, 12,12-dimethyl-8-(3-{2-[1-(trifluoromethyl)cyclopropyl]ethoxy}-1H-pyrazol-1-yl)-2λ^6-thia-3,9,11,18,22-pentaazatetracyclo[17.3.1.111,14.05,10]tetracosa-1(23),5(10),6,8,19,21-hexaene-2,2,4-trione] | > 3000 nM | + (+ is <30%) | ring closure, yield after HPLC ([2]; from CC(C)(C)OC(=O)N1CC(CCCNc2ccnc(S(=O)(=O)NC(=O)c3ccc(-n4ccc(OCCC5(C(F)(F)F)CC5)n4)nc3Cl)c2)CC1(C)C, 15-membered ring, K2CO3/CsF, 13.0 mM, 150.0 °C, 2 steps): 9%
13 | CC1(C)CC2CN1c1nc(-n3ccc(OCCC4(C(F)(F)F)CC4)n3)ccc1C(=O)NS(=O)(=O)c1cccc(n1)N2 (stereo not shown) [Compound 31, 5,5-dimethyl-9-(3-{2-[1-(trifluoromethyl)cyclopropyl]ethoxy}-1H-pyrazol-1-yl)-15λ^6-thia-2,6,8,14,20-pentaazatetracyclo[14.3.1.13,6.07,12]henicosa-1(20),7,9,11,16,18-hexaene-13,15,15-trione] | > 3000 nM | + (+ is <30%) | ring closure, yield after HPLC ([2]; from 2-chloro-N-[[6-[(5,5-dimethylpyrrolidin-3-yl)amino]-2-pyridyl]sulfonyl]-6-[3-[2-[1-(trifluoromethyl)cyclopropyl]ethoxy]pyrazol-1-yl]pyridine-3-carboxamide (dihydrochloride salt), 12-membered ring, K2CO3/CsF/4A MS, 10.5 mM, 150.0 °C): 37%

Source: US11866450B2, “Modulators of Cystic Fibrosis Transmembrane Conductance regulator, pharmaceutical compositions, methods of treatment, and process for making the modulators” (priority 2018, dated 2024)
